Data published in ChEMBL document CHEMBL5260811, “Drug development against tuberculosis: Impact of alkaloids” (Eur J Med Chem, 2017).
Converted amounts (≈) assume the structure as drawn.

Test system: Mycobacterium
Assay: Antimycobacterial activity against Mycobacterium
Assay type: functional
Details: not given

| Compound | MIC |
| --- | --- |
| COC1=C(Br)[C@@H](O)[C@]2(C=C1Br)CC(C(=O)NC[C@@H](O)COc1c(Br)cc(C(O)CNC(=O)C3=NO[C@@]4(C=C(Br)C(OC)=C(Br)[C@H]4O)C3)cc1Br)=CO2 (stereo partly specified) | 7.9 µg/mL |
| COC(=O)c1cc2c(o1)-c1nccc3c1c(nc1ccccc13)C2=O | 0.61 µM |
| CS1(C2=CC(=O)C3=C(C2)c2nccc4cccc(c24)N3)CCC(=O)OC1 (stereo unspecified) | 2.1 µM |
| COC1=C(Br)[C@@H](O)[C@]2(C=C1Br)CC(C(=O)NCCCOc1c(Br)cc(C(O)CNC(=O)C3=NO[C@@]4(C=C(Br)C(OC)=C(Br)[C@H]4O)C3)cc1Br)=CO2 (stereo partly specified) | 8 µg/mL |
| COC(=O)c1cc2c(s1)-c1nccc3c1c(nc1ccccc13)C2=O | 0.58 µM |

Test system: Mycolicibacterium smegmatis
Assay: Antimycobacterial activity against Mycobacterium smegmatis
Assay type: functional
Details: not given

| Compound | IC [µg/mL] |
| --- | --- |
| C1=C\CCCCN2C[C@H]3CCCC/C=C\CCCCN4CC[C@@H]([C@H](CCCCCC/1)C4)[C@H](C3)C2 | 2.5 |
| C1=C\CCCC[C@@H]2CN3CCCC/C=C\CCCC[C@H]4C[C@H](CN(CCCCCC/1)C4)[C@H]2CC3 | 1 |
| OC1CCCC/C=C\CCCC[C@@H]2CN3CCCC/C=C\CCCC[C@H]4C[C@H](CN(C1)C4)[C@H]2CC3 (stereo partly specified) | 12.5 |

Same assay, conditions: Mycolicibacterium smegmatis

| Compound | MIC [µg/mL] |
| --- | --- |
| O=C1C=CC2=NC=CC3c4ccccc4N1C23 (stereo unspecified) | 8 (≈ 36 µM) |
| Nc1ccccc1-c1c[nH]c(C(=O)O)c1 | 0.5 (≈ 2.47 µM) |
| O=C(/C=C/C=C/c1ccc2c(c1)OCO2)N1CCCCC1 [PIPERINE] | 128 (≈ 449 µM) |
| O=CNCCCCC(NC(=O)C1COC(c2ccccc2O)=N1)C(=O)O (stereo unspecified) [TRANSVALENCIN Z] | 0.125 (≈ 0.344 µM) |

Test system: Mycolicibacterium phlei
Assay: Antimycobacterial activity against Mycobacterium phlei
Assay type: functional
Details: not given

| Compound | MIC [µg/mL] |
| --- | --- |
| O=C1C=CC2=NC=CC3c4ccccc4N1C23 (stereo unspecified) | 8 (≈ 36 µM) |
| CC(C)=CCOc1ccc(C2=C(Cc3ccccc3)C(=O)N(O)C2=O)cc1 | 25 (≈ 68.8 µM) |

Test system: Mycobacterium tuberculosis
Assay: Antimycobacterial activity against Mycobacterium tuberculosis H37Rv by microplate alamar blue assay
Assay type: functional
Details: not given

| Compound | MIC [µg/mL] |
| --- | --- |
| O=Cc1ccc2[nH]c3ccccc3c2c1 | 42.3 (≈ 217 µM) |
| COc1ccc2[nH]c3ccc(C=O)cc3c2c1 | 15.6 (≈ 69.3 µM) |
| CC[C@H]1C=CCC[C@@]2(C[C@@H]3CC[C@@H]4[C@H](C(=O)OCCCCCCCCCCCCCCCC(=O)N(CCCN)CC(O)CCN)[C@]5(CCC[C@@H](C)O5)N=C(N2)N34)O1 (stereo partly specified) | 46.5 (≈ 58 µM) |
| COc1ccc2[nH]c3cc(O)c(C=O)cc3c2c1 | 14.3 (≈ 59.3 µM) |
| CCCCCCCCC[C@@H]1C[C@@H]2CC[C@H]3[C@@H](C(=O)O[C@H](C)CCCCCCC[C@@H]4C[C@@H]5CC[C@@H]6C[C@H](C)NC(=N4)N65)[C@@H](C)N=C(N1)N23 | 3.18 (≈ 4.87 µM) |
| C=C[C@H]1C=C[C@H]2[C@@H]3C[C@H](C)CC[C@H]3[C@@H]3Oc4ccc(cc4)C[C@]4(O)NC(=O)[C@H](C(=O)[C@@H]1[C@H]23)C4N1C(=O)[C@H]2C(=O)[C@H]3[C@@H](C=C)C=C[C@H]4[C@@H]5C[C@H](C)CC[C@H]5[C@H](Oc5ccc(cc5)C[C@@H]2C1=O)[C@@H]43 (stereo partly specified) [HIRSUTELLONE F] | 3.12 (≈ 3.5 µM) |
| CC(C)=CCc1c(O)ccc2[nH]c3ccc(C=O)cc3c12 [MICROMELINE] | 31.5 (≈ 113 µM) |

Test system: Mycobacterium tuberculosis
Assay: Antimycobacterial activity against Mycobacterium tuberculosis
Assay type: functional
Details: Mycobacterium tuberculosis

| Compound | MIC [µg/mL] |
| --- | --- |
| O=Cc1ccc2[nH]c3ccccc3c2c1 | 100 (≈ 512 µM) |

Test system: Mycobacterium tuberculosis
Assay: Antimycobacterial activity against Mycobacterium tuberculosis H37Rv
Assay type: functional
Details: not given

| Compound | MIC |
| --- | --- |
| CC1=CCC[C@H](C)[C@@]1(C)CC/C(C)=C/CC/C(C)=C/Cn1c[n+](C)c2ncnc(N)c21 | 3.13 µg/mL |
| O=C1c2c(O)ccnc2-c2nccc3c2c1nc1ccccc13 | > 42 µM |
| COC1=CC(=O)c2nc3ccccc3c3ccnc1c23 | 1.5 µM |
| CCSC1=CC(=O)c2nc3ccccc3c3ccnc1c23 | 0.34 µM |
| CCCCCCCCC/C=C/C=C/C(=O)NCC(C)C | 6.2 µg/mL |
| c1cc2c[n+](c1)CCCCCCCCCCCCCc1ccc[n+](c1)CCCCCCCCCCCCC2 | 4 µg/mL |
| Cc1ccc(SC2=CC(=O)c3nc4ccccc4c(C)c3C2=O)cc1 | 2.2 µM |
| O=C1C(c2ccc(O)cc2)=C2C(=C(c3ccc(O)cc3)C(=O)N2CCc2ccc(O)cc2)c2ccc(O)cc21 | 4 µg/mL |
| CN1C=NC2=C(N)NCNC21 (stereo unspecified) | 6.25 µg/mL |
| CO/N=c1\[nH]cnc2c1[n+](C/C=C(\C)CC/C=C(\C)CCC1CCCCC1)cn2C.[Cl-] | 1.56 µg/mL |
| O=C1C(c2ccc(O)cc2)=C(c2ccc(O)cc2)/C(=C/c2ccc(O)cc2)N1CCc1ccc(O)cc1 | 32 µg/mL |
| C=C1CCCC(C)(C)[C@H]1CC/C(C)=C/CC/C(C)=C/C[n+]1cn(C)c2nc[nH]/c(=N\OC)c21.[Cl-] | 3 µg/mL |
| CC(=O)C[C@@H]1C[C@H]2[C@H]([C@@H]3c4[nH]c5ccccc5c4CCN13)[C@H](O)C13CC/C=C\CCCCN1C[C@@]21CC/C=C\CCCCN[C@@H]31 | 5.2 µg/mL |
| C=C1CC[C@@]2(C#N)[C@H]3[C@H](CC[C@@H]2C)[C@@H](C)C[C@@H](CC(C)(C)C)[C@H]13 | 2 µg/mL |
| Oc1ccc2[nH]c3c(C4=C[C@@]5(O)CC/C=C\CCCCN6CC[C@@H]4C4(C[C@@H]7/C=C\CCCCN7C45)C6)nccc3c2c1 (stereo partly specified) | 1.9 µg/mL |
| C=C1CC[C@@]2(C#N)[C@H]3[C@H](CC[C@@H]2C)[C@@H](C)C[C@@H](CC(C)(C)NC(=O)CN2CCC2=O)[C@H]13 | 15.3 µg/mL |
| CC(=O)C[C@H]1C[C@H]2[C@H]([C@@H]3c4[nH]c5ccccc5c4CCN13)[C@H](O)C13CC/C=C\CCCCN1C[C@@]21CC/C=C\CCCCN[C@@H]31 | 1.5 µg/mL |
| CO/N=c1\[nH]cnc2c1[n+](C/C=C(\C)CC/C=C(\C)CC/C=C(\C)CCC=C(C)C)cn2C.[Cl-] | 3.13 µg/mL |
| Cc1ccc(SC2=CC(=O)c3nc4ccccc4c4ccnc2c34)cc1 | 9 µM |
| COc1c(O)ccc2c1cnc1c3cc4c(cc3ccc21)OCO4 [DECARINE] | 3.1 µg/mL |
| CC[C@@H](CO)NCCN[C@@H](CC)CO [ETHAMBUTOL] | 5.61 µg/mL |

Test system: Mycobacterium sp.
Assay: Antimycobacterial activity against Mycobacterium sp.
Assay type: functional
Details: not given

| Compound | MIC [µg/mL] |
| --- | --- |
| COc1cnc2c3c(nccc13)C(=O)c1ccccc1-2 | 1.56 (≈ 5.95 µM) |
| c1ccc2c(c1)CC1NCCc3cc4c(c-2c31)OCO4 (stereo unspecified) | 12 (≈ 45.2 µM) |
| CC[C@H]1C[C@H]2C[N@]3CCc4c([nH]c5ccc(OC)cc45)[C@](C(=O)OC)(C2)[C@H]13 | 50 (≈ 136 µM) |
| CC[C@H]1C[C@H]2C[C@H]3c4[nH]c5ccc(OC)cc5c4CCN(C2)C13 | 50 (≈ 161 µM) |
| Oc1ccc2c(c1)CC1NCCc3cc4c(c-2c31)OCO4 (stereo unspecified) | 6 (≈ 21.3 µM) |
| CC[C@H]1CN(C)[C@H]2Cc3c([nH]c4ccccc34)C(=O)C[C@@H]1[C@@H]2C(=O)OC | 128 (≈ 361 µM) |
| COc1ccc2c(c1)CC1NCCc3cc4c(c-2c31)OCO4 (stereo unspecified) | 12 (≈ 40.6 µM) |
| Cc1ccnc2c1C(=O)c1ccccc1C2=O [CLEISTOPHOLINE] | 12.5 (≈ 56 µM) |
| COc1cc2c(cc1O)CC[n+]1cc3c(OC)c(OC)ccc3cc1-2 [JATRORRHIZINE] | < 100 |
| O=C1c2ccccc2-c2nccc3ccnc1c23 [SAMPANGINE] | 0.78 (≈ 3.36 µM) |

Test system: Mycolicibacterium vaccae
Assay: Antimycobacterial activity against Mycobacterium vaccae
Assay type: functional
Details: not given

| Compound | MIC [µg/mL] |
| --- | --- |
| CC/C=C(\C)C[C@H](C)C[C@H](C)/C(O)=C1/C(=O)N[C@@H]([C@@H](O)c2ccc(O)cc2)C1=O | 6.25 (≈ 15.6 µM) |
| CC/C=C(\C)C[C@H](C)C[C@H](C)/C(O)=C1/C(=O)N[C@@H](Cc2ccc(O)cc2)C1=O | 6.25 (≈ 16.2 µM) |

Test system: Mycobacterium tuberculosis
Assay: Antimycobacterial activity against Mycobacterium tuberculosis H37Rv at 50 ug/ml relative to control
Assay type: functional
Details: not given

| Compound | inhibition at 50 µg/mL [%] |
| --- | --- |
| C/C=C1\CN2CC[C@@H]1[C@](CO)(C(=O)OC)c1[nH]c3ccccc3c1C2 | 50 |
| COC(=O)[C@@]12COCC=C3CN(CC[C@@H]31)Cc1c2[nH]c2ccccc12 | 50 |
| C=C(c1cc2ccccc2[nH]1)[C@H]1CCN(C)C/C1=C\CO | 50 |
| COC(=O)[C@@]12COCC=C3C[N+]([O-])(CC[C@@H]31)Cc1c2[nH]c2ccccc12 | 50 |
| CC[C@@H]1[C@@H]2CCN3CC[C@@]4(C(=C2C(=O)OC)Nc2ccccc24)[C@@H]13 | 50 |
| COC(=O)[C@@]1(c2cc3ccccc3[nH]2)COCC=C2CN(C)CC[C@@H]21 [6,7-SECO-ANGUSTILOBINE B] | 50 |
